biological target: T1, Ba/F3-TEL-FGFR3 cells (Homo sapiens, UniProt P22607); experiment: FGFR3 cellular assay: proliferation of transformed Ba/F3-TEL-FGFR3 cells (AlamarBlue); type: cell-based; conditions: 48 hours incubation, class symbols
T1 construct: fused on or other part: The N-terminal oligomerising part of TEL (ETV6) is fused before the intracellular kinase part of FGFR3; P41212 (Transcription factor ETV6)
Method in brief: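 Ba/F3-TEL-FGFR3 cells (5000/well) in RPMI 1640 with 10% FBS, exposed to twelve-point 1:3 compound dilutions for 48 h. Proliferation read by AlamarBlue (10% final, 4 h at 37 °C), fluorescence Ex530/Em580; IC50 from linear regression of percent inhibition.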

T1 sequence (P22607 whole entry, change not shown, the tested form may be a part): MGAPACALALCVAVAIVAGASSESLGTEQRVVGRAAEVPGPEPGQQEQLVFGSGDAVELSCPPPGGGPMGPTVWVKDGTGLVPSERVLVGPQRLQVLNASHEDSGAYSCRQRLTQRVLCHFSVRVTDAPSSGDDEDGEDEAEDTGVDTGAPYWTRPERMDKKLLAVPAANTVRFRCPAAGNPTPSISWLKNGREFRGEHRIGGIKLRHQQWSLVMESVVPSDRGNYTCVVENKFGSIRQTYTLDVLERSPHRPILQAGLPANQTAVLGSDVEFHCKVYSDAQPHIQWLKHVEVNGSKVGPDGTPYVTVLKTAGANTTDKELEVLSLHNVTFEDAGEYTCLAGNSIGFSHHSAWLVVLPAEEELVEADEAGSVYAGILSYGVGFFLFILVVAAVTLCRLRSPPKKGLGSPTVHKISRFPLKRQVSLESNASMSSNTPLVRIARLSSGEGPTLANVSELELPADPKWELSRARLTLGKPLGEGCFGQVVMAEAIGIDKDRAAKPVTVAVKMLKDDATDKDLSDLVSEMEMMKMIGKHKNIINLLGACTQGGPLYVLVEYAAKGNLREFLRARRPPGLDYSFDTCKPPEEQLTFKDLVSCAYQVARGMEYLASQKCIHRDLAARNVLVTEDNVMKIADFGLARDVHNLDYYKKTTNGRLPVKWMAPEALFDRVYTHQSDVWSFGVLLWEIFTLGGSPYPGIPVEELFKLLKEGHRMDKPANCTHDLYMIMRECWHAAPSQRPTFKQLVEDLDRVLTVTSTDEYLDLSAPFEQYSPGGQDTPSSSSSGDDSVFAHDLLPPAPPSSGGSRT

GI50 [nM]	Compound
< 100	COc1cc(OC)c(Cl)c(Nc2nccnc2-c2cc(Nc3ccc(CN4CCN(CCO)CC4)cn3)ncn2)c1Cl [Compound 100]
< 100	COc1cc(OC)c(Cl)c(Nc2ncncc2-c2cc(Nc3ccc(CN4CCN(C)CC4)cn3)ncn2)c1Cl [Compound 3, N4′-(2,6-Dichloro-3,5-dimethoxy-phenyl)-N6-[5-(4-methyl-piperazin-1-ylmethyl)-pyridin-2-yl]-[4,5′]bipyrimidinyl-6,4′-diamine]
< 100	COc1cc(OC)c(Cl)c(Nc2ncncc2-c2cc(Nc3cc(CN4CCCC4)ccn3)ncn2)c1F [Compound 60, N4′-(2-Chloro-6-fluoro-3,5-dimethoxy-phenyl)-N6-(4-pyrrolidin-1-ylmethyl-pyridin-2-yl)-[4,5′]bipyrimidinyl-6,4′-diamine]
< 100	CCNC(=O)c1cc(OC)c(Cl)c(Nc2ncncc2-c2cc(Nc3cc(CN4CCN(C)CC4)ccn3)ncn2)c1Cl [Compound 30, 2,4-Dichloro-N-ethyl-5-methoxy-3-{6-[4-(4-methyl-piperazin-1-ylmethyl)-pyridin-2-ylamino]-[4,5′]bipyrimidinyl-4′-ylamino}-benzamide]
< 100	COc1cc(OC)c(Cl)c(Nc2nccnc2-c2cc(Nc3cc(CN4CCOCC4)ccn3)ncn2)c1Cl [Compound 96, {6-[3-(2,6-Dichloro-3,5-dimethoxy-phenylamino)-pyrazin-2-yl]-pyrimidin-4-yl}-(4-morpholin-4-ylmethyl-pyridin-2-yl)-amine]
< 100	COc1cc(OC)c(Cl)c(Nc2ncncc2-c2cc(Nc3cc(CN4CCN(C)CC4)ccn3)ncn2)c1Cl [Compound 6, N4′-(2,6-Dichloro-3,5-dimethoxy-phenyl)-N6-[4-(4-methyl-piperazin-1-ylmethyl)-pyridin-2-yl]-[4,5′]bipyrimidinyl-6,4′-diamine]
250 to 500	COc1cc(OC)c(Cl)c(Nc2ncncc2-c2cc(Nc3ccc(CCN4CCOCC4)cn3)ncn2)c1C [Compound 86, N4′-(2-Chloro-3,5-dimethoxy-6-methyl-phenyl)-N6-[5-(2-morpholin-4-yl-ethyl)-pyridin-2-yl]-[4,5′]bipyrimidinyl-6,4′-diamine]
< 100	COc1cc(OC)c(Cl)c(Nc2ncncc2-c2cc(Nc3ccc(CN4CCCCC4)cn3)ncn2)c1Cl [Compound 22, N4′-(2,6-Dichloro-3,5-dimethoxy-phenyl)-N6-(5-piperidin-1-ylmethyl-pyridin-2-yl)-[4,5′]bipyrimidinyl-6,4′-diamine]
< 100	COc1cc(OC)c(Cl)c(Nc2ncncc2-c2cc(Nc3ccc(CN4CCN(C(C)=O)CC4)cn3)ncn2)c1Cl [Compound 16, 1-(4-{6-[4′-(2,6-Dichloro-3,5-dimethoxy-phenylamino)-[4,5′]bipyrimidinyl-6-ylamino]-pyridin-3-ylmethyl}-piperazin-1-yl)-ethanone]
< 100	COc1ccc(F)c(Nc2nccnc2-c2cc(Nc3cc(CN4CCOCC4)ccn3)ncn2)c1F [Compound 105, {6-[3-(2,6-Difluoro-3-methoxy-phenylamino)-pyrazin-2-yl]-pyrimidin-4-yl}-(4-(morpholin-4-ylmethyl)-pyridin-2-yl)-amine]
< 100	COc1cc(OC)c(Cl)c(Nc2nccnc2-c2cc(Nc3ccc(CN4CCN(C(=O)CO)CC4)cn3)ncn2)c1Cl [Compound 101]
< 100	COc1cc(OC)c(Cl)c(Nc2ncncc2-c2cc(Nc3ccc(CN4CCOCC4)cn3)ncn2)c1F [Compound 44, N4′-(2-Chloro-6-fluoro-3,5-dimethoxy-phenyl)-N6-(5-morpholin-4-ylmethyl-pyridin-2-yl)-[4,5′]bipyrimidinyl-6,4′-diamine]
< 100	COc1cc(OC)c(Cl)c(Nc2ncncc2-c2cc(Nc3cc(CN4CCOCC4)ccn3)ncn2)c1C [Compound 54, N4′-(2-Chloro-3,5-dimethoxy-6-methyl-phenyl)-N6-(4-morpholin-4-ylmethyl-pyridin-2-yl)-[4,5′]bipyrimidinyl-6,4′-diamine]
< 100	COc1cc(OC)c(Cl)c(Nc2ncncc2-c2cc(Nc3ccc(N4CCOCC4)cc3)ncn2)c1Cl [Compound 11, N4′-(2,6-Dichloro-3,5-dimethoxy-phenyl)-N6-(4-morpholin-4-yl-phenyl)-[4,5′]bipyrimidinyl-6,4′-diamine]
< 100	CCONC(=O)c1cc(OC)c(Cl)c(Nc2ncncc2-c2cc(Nc3ccc(CN4CCOCC4)cn3)ncn2)c1Cl [Compound 25, 2,4-Dichloro-N-ethoxy-5-methoxy-3-[6-(5-morpholin-4-ylmethyl-pyridin-2-ylamino)-[4,5′]bipyrimidinyl-4′-ylamino]-benzamide]
< 100	COc1cc(OC)c(Cl)c(Nc2ncncc2-c2cc(Nc3ccc(CN4CCN(C(=O)CO)CC4)cn3)ncn2)c1Cl [Compound 87, 1-(4-{6-[4′-(2,6-Dichloro-3,5-dimethoxy-phenylamino)-[4,5′]bipyrimidinyl-6-ylamino]-pyridin-3-ylmethyl}-piperazin-1-yl)-2-hydroxy-ethanone]

The next lines start with the compound.

Compound	GI50 [nM]
COc1cc(OC)c(Cl)c(Nc2ncncc2-c2cc(Nc3ccc(CN4CCN(C(=O)CO)CC4)cn3)ncn2)c1F [Compound 88, 1-(4-{6-[4′-(2-Chloro-6-fluoro-3,5-dimethoxy-phenylamino)-[4,5′]bipyrimidinyl-6-ylamino]-pyridin-3-ylmethyl}-piperazin-1-yl)-2-hydroxy-ethanone]	< 100
CCNC(=O)c1cc(OC)c(Cl)c(Nc2ncncc2-c2cc(Nc3ccc(CCN4CCOCC4)cn3)ncn2)c1Cl [Compound 32, 2,4-Dichloro-N-ethyl-5-methoxy-3-{6-[5-(2-morpholin-4-yl-ethyl)-pyridin-2-ylamino]-[4,5′]bipyrimidinyl-4′-yl-amino}-benzamide]	100 to 250
CCN1CCN(Cc2ccc(NC(=O)c3cc(OC)c(Cl)c(Nc4ncncc4-c4cc(Nc5ccc(CN6CCOCC6)cn5)ncn4)c3Cl)cc2C(F)(F)F)CC1 [Compound 93, 2,4-dichloro-N-(4-((4-ethylpiperazin-1-yl)methyl)-3-(trifluoromethyl)phenyl)-5-methoxy-3-(6-(5-(morpholinomethyl)pyridin-2-ylamino)-4,5′-bipyrimidin-4′-ylamino)benzamide]	< 100
COc1cc(C(=O)Nc2cccc(C(F)(F)F)c2)c(Cl)c(Nc2ncncc2-c2cc(Nc3ccc(CN4CCOCC4)cn3)ncn2)c1Cl [Compound 92, 2,4-dichloro-5-methoxy-3-(6-(5-(morpholinomethyl)pyridin-2-ylamino)-4,5′-bipyrimidin-4′-ylamino)-N-(3-(trifluoromethyl)phenyl)benzamide]	< 100
CCN1CCN(c2ccc(Nc3cc(-c4cncnc4Nc4c(Cl)c(OC)cc(C(=O)OC)c4Cl)ncn3)nc2)CC1 [Compound 41, 2,4-Dichloro-3-{6-[5-(4-ethyl-piperazin-1-yl)-pyridin-2-ylamino]-[4,5′]bipyrimidinyl-4′-ylamino}-5-methoxy-benzoic acid methyl ester]	< 100
CCN1CCN(c2ccc(Nc3cc(-c4cncnc4Nc4c(Cl)c(OC)cc(C(=O)NC5CC5)c4Cl)ncn3)nc2)CC1 [Compound 55, 2,4-Dichloro-N-cyclopropyl-3-{6-[5-(4-ethyl-piperazin-1-yl)-pyridin-2-ylamino]-[4,5′]bipyrimidinyl-4′-ylamino}-5-methoxy-benzamide]	< 100
COc1cc(OC)c(Cl)c(Nc2ncncc2-c2cc(Nc3cccc(C(C)O)c3)ncn2)c1Cl (stereo not shown) [Compound 29, 1-{3-[4′-(2,6-Dichloro-3,5-dimethoxy-phenylamino)-[4,5′]bipyrimidinyl-6-ylamino]-phenyl}-ethanol]	< 100
CCN1CCN(Cc2ccc(Nc3cc(-c4cncnc4Nc4c(C)c(OC)cc(OC)c4Cl)ncn3)nc2)CC1 [Compound 53, N4′-(2-Chloro-3,5-dimethoxy-6-methyl-phenyl)-N6-[5-(4-ethyl-piperazin-1-ylmethyl)-pyridin-2-yl]-[4,5′]bipyrimidinyl-6,4′-diamine]	< 100
COc1cc(OC)c(Cl)c(Nc2ncncc2-c2cc(Nc3ccc(CN(C)C)cn3)ncn2)c1Cl [Compound 7, N4′-(2,6-Dichloro-3,5-dimethoxy-phenyl)-N6-(5-dimethylaminomethyl-pyridin-2-yl)-[4,5′]bipyrimidinyl-6,4′-diamine]	< 100
COc1cc(OC)c(F)c(Nc2ncncc2-c2cc(Nc3ccc(CN4CCN(C(=O)CO)CC4)cn3)ncn2)c1F [Compound 89]	< 100
Nc1cc(-c2nccnc2Nc2c(Cl)cccc2Cl)ncn1 [Compound 106, 6-(3-(2,6-dichlorophenylamino)pyrazin-2-yl)pyrimidin-4-amine]	< 100
CCN1CCN(Cc2ccc(Nc3cc(-c4cncnc4Nc4c(F)c(OC)cc(OC)c4Cl)ncn3)nc2)CC1 [Compound 45, N4′-(2-Chloro-6-fluoro-3,5-dimethoxy-phenyl)-N6-[5-(4-ethyl-piperazin-1-ylmethyl)-pyridin-2-yl]-[4,5′]bipyrimidinyl-6,4′-diamine]	< 100
CCNC(=O)c1cc(OC)c(Cl)c(Nc2ncncc2-c2cc(Nc3ccc(N4CCN(CC)CC4)cc3)ncn2)c1Cl [Compound 36, 2,4-Dichloro-N-ethyl-3-{6-[4-(4-ethyl-piperazin-1-yl)-phenylamino]-[4,5′]bipyrimidinyl-4′-ylamino}-5-methoxy-benzamide]	< 100
COc1cc(OC)c(Cl)c(Nc2ncncc2-c2cc(Nc3ccc(C(C)O)cn3)ncn2)c1C (stereo not shown) [Compound 81, 1-{6-[4′-(2-Chloro-3,5-dimethoxy-6-methyl-phenylamino)-[4,5′]bipyrimidinyl-6-ylamino]-pyridin-3-yl}-ethanol]	< 100

same assay, conditions: 48 hours incubation, given as bound

GI50 [nM]	Compound
> 500	Clc1cccc(Cl)c1Nc1nccnc1-c1cc(Nc2ccc(CN3CCOCC3)cn2)ncn1 [Compound 107, 6-(3-(2,6-dichlorophenylamino)pyrazin-2-yl)-N-(5-(morpholinomethyl)pyridin-2-yl)pyrimidin-4-amine]

— patent US8026243B2, “[4,5′]Bipyrimidinyl-6,4′-diamine derivatives as protein kinase inhibitors” (Novartis AG, priority 2006, dated 2011)
